Biological target: T1, hGIP-R (Homo sapiens, UniProt P48546)
T1 construct: expressed in transfected cells; host or cells: HEK-293 clonal cell lines
T1 sequence (P48546 22-466): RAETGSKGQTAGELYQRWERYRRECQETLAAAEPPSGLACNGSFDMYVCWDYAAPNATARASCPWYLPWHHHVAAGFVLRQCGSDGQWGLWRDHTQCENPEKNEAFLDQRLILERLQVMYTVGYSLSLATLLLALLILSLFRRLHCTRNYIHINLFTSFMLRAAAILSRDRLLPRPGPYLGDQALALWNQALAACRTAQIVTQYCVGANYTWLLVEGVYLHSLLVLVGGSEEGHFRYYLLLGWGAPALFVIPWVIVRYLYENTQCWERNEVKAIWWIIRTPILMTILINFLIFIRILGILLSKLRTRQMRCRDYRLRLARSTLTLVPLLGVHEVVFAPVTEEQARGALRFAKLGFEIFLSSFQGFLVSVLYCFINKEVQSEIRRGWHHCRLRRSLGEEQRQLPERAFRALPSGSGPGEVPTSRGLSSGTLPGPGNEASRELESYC
Assay: Functional hGIP-R Assay (cAMP formation, HTRF)
Type: cell-based
Conditions: for Emax: cAMP efficacy, percent of maximal response to GIP(1-42)OH, 37° C., 0.1% bovine casein, arithmetic mean ± SEM; for EC50: cAMP potency, HEK-293 cells expressing hGIP-R, incubated at 37° C. in the presence of 0.1% bovine casein, geometric mean, read-out: Human GIP-R EC50, nM (SEM, n)
Method in brief: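 Relative EC50 and Emax came from four-parameter logistic fits of cAMP as a percent of the human GIP (1-42) OH maximal response. The cAMP was measured by competitive HTRF after 30 min, 37 °C compound exposure of hGIP-R HEK-293 clones in IBMX (250 μM)-containing medium.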

SMILES	Emax	EC50
Cc1nc(-c2cnc3nc(C4CC4)cn3c2)ccc1[C@H]1C[C@@]12CCN([C@H](Cc1cnn(C(F)F)c1)C(=O)NC(C)(C)Cn1nc(C(F)(F)F)cc1-c1ccc(C(C)(C)O)nc1)C2=O [Example 159, (R)-2-((1R,3R)-1-(6-(2-Cyclopropylimidazo[1,2-a]pyrimidin-6-yl)-2-methylpyridin-3-yl)-4-oxo-5-azaspiro[2.4]heptan-5-yl)-3-(1-(difluoromethyl)-1H-pyrazol-4-yl)-N-(1-(5-(6-(2-hydroxypropan-2-yl)pyridin-3-yl)-3-(trifluoromethyl)-1H-pyrazol-1-yl)-2-methylpropan-2-yl)propanamide]	95.3 ± 3.03%	0.397 nM
COCc1cn2cc(-c3ccc([C@H]4C[C@@]45CCN([C@H](Cc4cnn(C(F)F)c4)C(=O)NC(C)(C)Cn4nc(C(F)(F)F)cc4-c4ccnc(C(C)(C)O)c4)C5=O)c(C)n3)cnc2n1 [Example 160, (R)-3-(1-(difluoromethyl)-1H-pyrazol-4-yl)-N-(1-(5-(2-(2-hydroxypropan-2-yl)pyridin-4-yl)-3-(trifluoromethyl)-1H-pyrazol-1-yl)-2-methylpropan-2-yl)-2-((1R,3R)-1-(6-(2-(methoxymethyl)imidazo[1,2-a]pyrimidin-6-yl)-2-methylpyridin-3-yl)-4-oxo-5-azaspiro[2.4]heptan-5-yl)propanamide]	119 ± 3.76%	1.24 nM
Cn1cc2cc(-c3ccc([C@H]4C[C@@]45CCN([C@H](Cc4cnn(C(F)F)c4)C(=O)NC(C)(C)Cn4nc(C(F)(F)F)cc4-c4ccn(C6CC6)c(=O)n4)C5=O)c(Cl)c3)cnc2n1 [Example 161, (R)-2-((1S,3R)-1-(2-chloro-4-(2-methyl-2H-pyrazolo[3,4-b]pyridin-5-yl)phenyl)-4-oxo-5-azaspiro[2.4]heptan-5-yl)-N-(1-(5-(1-cyclopropyl-2-oxo-1,2-dihydropyrimidin-4-yl)-3-(trifluoromethyl)-1H-pyrazol-1-yl)-2-methylpropan-2-yl)-3-(1-(difluoromethyl)-1H-pyrazol-4-yl)propanamide]	71.7 ± 1.02%	1.47 nM
Cn1cc2cc(-c3ccc([C@H]4C[C@@]45CCN([C@H](Cc4cnn(C(F)F)c4)C(=O)NC(C)(C)Cn4nc(C(F)(F)F)cc4-c4ccc(P(C)(C)=O)cc4)C5=O)c(Cl)c3)cnc2n1 [Example 162, (R)-2-((1S,3R)-1-(2-chloro-4-(2-methyl-2H-pyrazolo[3,4-b]pyridin-5-yl)phenyl)-4-oxo-5-azaspiro[2.4]heptan-5-yl)-3-(1-(difluoro-methyl)-1H-pyrazol-4-yl)-N-(1-(5-(4-(dimethyl-phosphoryl)phenyl)-3-(trifluoro-methyl)-1H-pyrazol-1-yl)-2-methylpropan-2-yl)propanamide]	50%	0.179 nM
Cn1cc2cc(-c3ccc([C@H]4C[C@@]45CCN([C@H](Cc4cnn(C(F)F)c4)C(=O)NC(C)(C)Cn4nc(C(F)(F)F)cc4P(C)(C)=O)C5=O)c(Cl)c3)cnc2n1 [Example 163, (R)-2-((1S,3R)-1-(2-chloro-4-(2-methyl-2H-pyrazolo[3,4-b]pyridin-5-yl)phenyl)-4-oxo-5-azaspiro[2.4]heptan-5-yl)-3-(1-(difluoro-methyl)-1H-pyrazol-4-yl)-N-(1-(5-(dimethyl-phosphoryl)-3-(trifluoro-methyl)-1H-pyrazol-1-yl)-2-methylpropan-2-yl)propanamide]	109%	3.95 nM
CCn1cc2cc(-c3ccc([C@H]4C[C@@]45CCN([C@H](Cc4cnn(C(F)F)c4)C(=O)NC(C)(C)Cn4nc(C(F)(F)F)cc4-c4cnc(C(C)(C)O)nc4)C5=O)c(C)n3)cnc2n1 [Example 164, (R)-3-(1-(difluoromethyl)-1H-pyrazol-4-yl)-2-((1R,3R)-1-(6-(2-ethyl-2H-pyrazolo[3,4-b]pyridin-5-yl)-2-methylpyridin-3-yl)-4-oxo-5-azaspiro[2.4]heptan-5-yl)-N-(1-(5-(2-(2-hydroxypropan-2-yl)pyrimidin-5-yl)-3-(trifluoromethyl)-1H-pyrazol-1-yl)-2-methylpropan-2-yl)propanamide]	53.3 ± 0.286%	4.31 nM
Cc1cn2cc(-c3ccc([C@H]4C[C@@]45CCN([C@H](Cc4cnn(C(F)F)c4)C(=O)NC(C)(C)Cn4nc(C(F)(F)F)cc4-c4ccn(C6CC6)c(=O)c4)C5=O)c(Cl)c3)cnc2n1 [Example 165, (R)-2-((1S,3R)-1-(2-chloro-4-(2-methylimidazo[1,2-a]pyrimidin-6-yl)phenyl)-4-oxo-5-azaspiro[2.4]heptan-5-yl)-N-(1-(5-(1-cyclopropyl-2-oxo-1,2-dihydropyridin-4-yl)-3-(trifluoromethyl)-1H-pyrazol-1-yl)-2-methylpropan-2-yl)-3-(1-(difluoromethyl)-1H-pyrazol-4-yl)propanamide]	65.7 ± 4.25%	0.44 nM

Now from value to molecule:

Emax	EC50	SMILES
110%	1.81 nM	COCc1cn2cc(-c3ccc([C@H]4C[C@@]45CCN([C@H](Cc4cnn(C(F)F)c4)C(=O)NC(C)(C)Cn4nc(C(F)(F)F)cc4-c4ccc(C(C)(C)O)nc4)C5=O)c(C)n3)cnc2n1 [Example 168, (R)-3-(1-(difluoromethyl)-1H-pyrazol-4-yl)-N-(1-(5-(6-(2-hydroxypropan-2-yl)pyridin-3-yl)-3-(trifluoromethyl)-1H-pyrazol-1-yl)-2-methylpropan-2-yl)-2-((1R,3R)-1-(6-(2-(methoxymethyl)imidazo[1,2-a]pyrimidin-6-yl)-2-methylpyridin-3-yl)-4-oxo-5-azaspiro[2.4]heptan-5-yl)propanamide]
58.9 ± 1.86%	1.15 nM	Cc1nc(-c2cnc3nn(C4CC4)cc3c2)ccc1[C@H]1C[C@@]12CCN([C@H](Cc1cnn(C(F)F)c1)C(=O)NC(C)(C)Cn1nc(C(F)(F)F)cc1-c1ccn(C3CC3)c(=O)c1)C2=O [Example 169, (R)—N-(1-(5-(1-cyclopropyl-2-oxo-1,2-dihydropyridin-4-yl)-3-(trifluoromethyl)-1H-pyrazol-1-yl)-2-methylpropan-2-yl)-2-((1R,3R)-1-(6-(2-cyclopropyl-2H-pyrazolo[3,4-b]pyridin-5-yl)-2-methylpyridin-3-yl)-4-oxo-5-azaspiro[2.4]heptan-5-yl)-3-(1-(difluoromethyl)-1H-pyrazol-4-yl)propanamide]
97.2 ± 0.998%	0.846 nM	Cc1nc(-c2cnc3nc(C4CC4)cn3c2)ccc1[C@H]1C[C@@]12CCN([C@H](Cc1cnn(C(F)F)c1)C(=O)NC(C)(C)Cn1nc(C(F)(F)F)cc1-c1cc(F)c(=O)n(C)c1)C2=O [Example 170, (R)-2-((1R,3R)-1-(6-(2-cyclopropylimidazo[1,2-a]pyrimidin-6-yl)-2-methylpyridin-3-yl)-4-oxo-5-azaspiro[2.4]heptan-5-yl)-3-(1-(difluoromethyl)-1H-pyrazol-4-yl)-N-(1-(5-(5-fluoro-1-methyl-6-oxo-1,6-dihydropyridin-3-yl)-3-(trifluoromethyl)-1H-pyrazol-1-yl)-2-methylpropan-2-yl)propanamide]
25.1 ± 2.38%	14.2 nM	Cc1nc(-c2ccc(C(C)(C)O)nc2)ccc1[C@H]1C[C@@]12CCN([C@H](Cc1cnn(C(F)F)c1)C(=O)NC(C)(C)Cn1nc(C(F)(F)F)cc1-c1ccn(C3CC3)c(=O)c1)C2=O [Example 171, (R)-N-(1-(5-(1-cyclopropyl-2-oxo-1,2-dihydropyridin-4-yl)-3-(trifluoromethyl)-1H-pyrazol-1-yl)-2-methylpropan-2-yl)-3-(1-(difluoromethyl)-1H-pyrazol-4-yl)-2-((1R,3R)-1-(6′-(2-hydroxypropan-2-yl)-6-methyl-[2,3′-bipyridin]-5-yl)-4-oxo-5-azaspiro[2.4]heptan-5-yl)propanamide]
12.6 ± 0.102%	3.16 nM	COc1ccc(-c2ccc([C@H]3C[C@@]34CCN([C@H](Cc3cnn(C(F)F)c3)C(=O)NC(C)(C)Cn3nc(C(F)(F)F)cc3-c3ccn(C5CC5)c(=O)c3)C4=O)c(C)n2)cn1 [Example 172, (R)-N-(1-(5-(1-cyclopropyl-2-oxo-1,2-dihydropyridin-4-yl)-3-(trifluoromethyl)-1H-pyrazol-1-yl)-2-methylpropan-2-yl)-3-(1-(difluoromethyl)-1H-pyrazol-4-yl)-2-((1R,3R)-1-(6′-methoxy-6-methyl-[2,3′-bipyridin]-5-yl)-4-oxo-5-azaspiro[2.4]heptan-5-yl)propanamide]
15.9 ± 0.138%	24.6 nM	COc1ncc(-c2ccc([C@H]3C[C@@]34CCN([C@H](Cc3cnn(C(F)F)c3)C(=O)NC(C)(C)Cn3nc(C(F)(F)F)cc3-c3ccn(C5CC5)c(=O)c3)C4=O)c(C)n2)cn1 [Example 173, (R)-N-(1-(5-(1-cyclopropyl-2-oxo-1,2-dihydropyridin-4-yl)-3-(trifluoromethyl)-1H-pyrazol-1-yl)-2-methylpropan-2-yl)-3-(1-(difluoromethyl)-1H-pyrazol-4-yl)-2-((1R,3R)-1-(6-(2-methoxypyrimidin-5-yl)-2-methylpyridin-3-yl)-4-oxo-5-azaspiro[2.4]heptan-5-yl)propanamide]
